Data on five compounds can be found in patent US6004955A, “Cyclic carbamates and isoxazolidines as IIb/IIIa antagonists” (DuPont Pharmaceuticals Company, priority 1998, dated 1999).

The structures appear in SMILES notation.

The term IC50 denotes the concentration at which inhibition is half-maximal. A higher IC50 goes with weaker potency in that assay.

The subject of this experiment is platelet aggregation (using platelet rich plasma (PRP)). In words: Platelet Aggregation Assay (without esterase). As to conditions: human platelet rich plasma. In kind it is cell-based. On the procedure: Platelet Aggregation Assay: Venous blood was obtained from the arm of a healthy human donor who was drug-free and aspirin-free for at least two weeks prior to blood collection. Blood was collected into 10 mL citrated Vacutainer tubes. The blood was centrifuged for 15 minutes at 150×g at room temperature, and platelet-rich plasma (PRP) was removed. The remaining blood was centrifuged for 15 minutes at 1500×g at room temperature, and platelet-poor plasma (PPP) was removed. Samples were assayed on a aggregometer (PAP-4 Platelet Aggregation Profiler), using PPP as the blank (100% transmittance). 200 μL of PRP was added to each micro test tube, and transmittance was set to 0%. 20 μL of various agonists (ADP, collagen, arachidonate, epinephrine, thrombin) were added to each tube, and the aggregation profiles were plotted (% transmittance versus time). The results are expressed as % inhibition of agonist-inducedplatelet aggregation. For the IC50 evaluation, the test compounds were added at various concentrations prior to the activation of the platelets.
Table A below sets forth the antiplatelet activity of representative compounds of the present invention. The indicated compounds were tested for their ability to inhibit platelet aggregation (using platelet rich plasma (PRP)). The IC50 value (the concentration of antagonist which inhibits platelet aggregation by 50% relative to a control lacking the antagonist) is shown. In Table 5 the IC50 values are expressed as: +++=IC50 of <10 μM (μM=micromolar).
`Cc1noc(C)c1S(=O)(=O)N[C@@H](CNC(=O)C[C@@H]1C[C@H](c2ccc(C(=N)N)cc2)N(C)O1)C(=O)O` (relative stereo) [Example 38, Cis-3-[2-[2-methyl-3-[4-(aminoiminomethyl)phenyl]-isoxazolidin-5-yl]acetyl]amino-N-(3,5-dimethyloxazol-4-ylsulfonyl)-L-alanine monohydrogenchloride]: the IC50 is less than 10 µM.

For the compound `CCCCOC(=O)N[C@@H](CNC(=O)CC1CC(c2ccc(C(=N)N)cc2)N(C)O1)C(=O)O` (stereo partly drawn) [Example 69, Cis-3-[2-[2-methyl-3-[4-(aminoiminomethyl)phenyl]-isoxazolidin-5-yl]acetyl]amino-N-n-butyloxycarbonyl-L-alanine monohydrogenchloride], the concentration for half-maximal inhibition (IC50) is less than 10 µM.

In the case of `Cc1noc(C)c1S(=O)(=O)N[C@@H](CNC(=O)CC1CC(c2ccc(C(=N)N)cc2)N(C)C(=O)O1)C(=O)O` (stereo partly drawn) [Example 336, Cis-3-[[[4-[4-(aminoiminomethyl)phenyl]tetrahydro-3-methyl-2-oxo-2H-1,3-oxazin-6-yl]acetyl]amino]-N-[(3,5-dimethylisoxazol-4-yl)sulfonyl]-L-alanine monohydrogenchloride], the half-maximal inhibitory concentration (IC50) is less than 10 µM.

Regarding `Cc1cccc(S(=O)(=O)N[C@@H](CNC(=O)CC2CC(c3ccc(C(=N)N)cc3)N(C)O2)C(=O)O)c1` (stereo partly drawn) [Example 2, Cis-3-[2-[2-methyl-3-[4-(aminoiminomethyl)phenyl]-isoxazolidin-5-yl]acetyl]amino-N-(3-methylphenylsulfonyl)-L-alanine monohydrogenchloride], the IC50 is less than 10 µM.

`Cc1cccc(S(=O)(=O)N[C@@H](CNC(=O)CC2CC(c3ccc(C(=N)N)cc3)N(c3ccccc3)O2)C(=O)O)c1` (stereo partly drawn) [Example 71, Cis-3-[2-[2-phenyl-[4-(aminoiminomethyl)phenyl]-isoxazolidin-5-yl]actetyl]amino-N-(3-methylphenylsulfonyl)-L-alanine monohydrogenchloride] displayed an IC50 of less than 10 µM.
